In turn, `Cn1c(Cl)c(C=O)c2cc(Cl)ccc21` yielded a melting point of 165 to 167 °C. As to `COc1ccc(S(=O)(=O)Nc2ccc(OC)nc2Nc2ccccc2)cc1`, the melting point is 187 to 188 °C. `CC1(C)SC(c2ccccc2O)NC1C(=O)O` (centres undefined): the melting point was in the range of 179 to 181 °C. The compound `O=C(O)Cc1c(C(=O)c2ccc(Cl)cn2)[nH]c2cc(Cl)ccc12` came in with a melting point of 242 to 244 °C. Then `CC(=O)NCCC1=CCc2ccc3nc(C)oc3c21`, with 154 to 156 °C.

The compound `Cc1cc(O)c(S(=O)Cc2ccccc2)c(=O)o1` (centres undefined) showed a melting point of 150 to 153 °C. Then `COc1ccc2c(c1)C(=O)N(c1ccc3ccn(C)c3c1)C2`, with 158 to 161 °C. Take `CS(=O)c1ccc(-n2cnc3ccc(-c4nnc(CCc5cccc(C(F)(F)F)c5)o4)cc32)cc1` (centres undefined): the melting point was 169 to 170 °C.

`C=C(C)Cn1cnc2c(N)nc3ccccc3c21` gave a melting point of 290 to 294 °C. In the case of `O=C1N(Cc2ccc3nsnc3c2)c2ccccc2C12COc1cc3c(cc12)OCCO3` (centres undefined) it was 189 to 191 °C; in that of `O=C1c2ccccc2C(=O)N1CCc1ccc(OC2c3ccccc3CCc3ccccc32)cc1`, 205 to 207 °C; in that of `Cc1cc2[nH]c3ncccc3c(=O)n2n1`, over 300 °C. The compound `COC(=S)CCc1cc(Oc2ccc(C(F)(F)F)cc2Cl)ccc1[N+](=O)[O-]` came in with a melting point of 61 to 63 °C. Regarding `COC(=O)N(CC(=O)O)C(=O)c1c(OCC(F)(F)F)ccc2c(C(F)(F)F)c(OC)ccc12`, the melting point was 186 to 187 °C. Then `O=C(Oc1ccc([N+](=O)[O-])cc1)[C@@H]1CCCN1C(=O)OCc1ccccc1`, with 94 to 96 °C; and `C=CCOC(=O)c1ccc(OC(=O)c2ccc(O[Si](C)(C)C(C)(C)C)c(C34CC5CC(CC(C5)C3)C4)c2)nc1`, with 130 to 132 °C; and `CCOC(=O)[C@@H]1C[C@H]1Sc1nc2ccccc2cc1-c1ccccc1` (relative stereo), with 94 to 94.5 °C.

Consider `CCc1cc(C(=O)c2ccccc2Cl)c(-n2c(C)nnc2CNC(=O)c2ccccc2)s1`, for which the melting point fell in the range of 160 to 161 °C.

`COc1cc(Cl)cc(C)c1Nc1nc2c(Cl)ccc(C(=C(C)C)C(C)C)c2n1C` gave a melting point of 166 to 168 °C. Take `CN(C(=O)C(F)(F)F)c1ccc2[nH]ncc2c1`: the melting point was in the range of 172 to 174 °C. Regarding `Cc1cn(N)c2ccccc12`, the melting point lay in the range of 60 to 63 °C. Then `CS(=O)(=O)c1ccc(Cl)cc1C1NC(=O)NC1=O` (centres undefined), with 238 to 240 °C; and `O=c1cc(OCC2CCCCC2)cc[nH]1`, with 256 to 260 °C; and `CN1CC(CNC(=N)NC(=O)c2cncc(Br)c2)CC2c3cccc4c3c(cn4C)CC21` (centres undefined), with 140 to 142 °C. Take `CCCC(=CC(N)C(=O)O)CP(=O)(O)O` (centres undefined): the melting point was determined as 193 °C. The compound `Cc1ccc(-c2nc(COc3ccc(CCCn4ccnc4)cc3)co2)o1` displayed a melting point of 109 to 110 °C. On to `N#Cc1cccc(C2=Nc3ccc(C#CC4=CC(=O)CCC4)cc3NC(=O)C2)c1`, for which the melting point is 110 °C. As for `CS(=O)(=O)c1cccc(NC(=O)c2cnn3c(C(F)F)cc(-c4ccc(OC(F)(F)F)cc4)nc23)c1`, the melting point was determined as 223 °C. Then `CCCc1ccnc(C(=O)O)c1N`, with 185 to 188 °C; and `Cc1ccc(/C=C/C(=O)O)n1Cc1ccc(Cl)cc1Cl`, with 181 to 182 °C; and `CC(C)(C)OC(=O)Nc1ccc(O)c2ccccc12`, with 172 to 174 °C. The compound `O=C(C1CCCc2c1c1ccccc1n2Cc1ccccc1)N1CCCC1` (centres undefined) gave a melting point of 232 to 234 °C. Then `Cc1c(C(N)=O)oc2c(C(=O)NCCCN3CCN(c4cc(Cl)ccc4O)CC3)cccc2c1=O`, with 116 to 158 °C; and `CC(C)(C)NCC(O)c1ccc(OCc2ccccc2)cn1` (centres undefined), with 69 to 73 °C; and `Cc1oc(-c2ccc3ccccc3c2)nc1COc1ccc(CCCCCOS(C)(=O)=O)cc1`, with 132 to 133 °C.

`Fc1ccc(CNc2ccc(-n3nc(C(F)(F)F)cc3C(F)(F)F)cc2)cc1`: the melting point is 92 to 94 °C. In the case of `N#CC1=C(C2CCCC2)Nc2n[nH]cc2C1c1ccccc1Cl` (centres undefined) it was 225 °C; in that of `CCC1c2cccn2-c2cc(Cl)ccc2N1S(=O)(=O)c1ccc(O)cc1` (centres undefined), 192 to 194 °C. Then `CNC(=O)N=C(NC(=O)Nc1ccc(Cl)cc1)OC`, with 169 to 171 °C; and `O=C1c2c(-c3ccccc3F)noc2CCC1CCCN1CCN(c2ccccn2)CC1` (centres undefined), with 94 to 96 °C; and `CC1(C)COC(=O)N1Cc1ccccc1[N+](=O)[O-]`, with 103 to 106 °C. The compound `O=C(O)CCCc1nc(NCc2ccc3c(c2)OCO3)c2cc(Cl)sc2n1` displayed a melting point of 112 °C.

In turn, `CC1NC(=O)N(C)N=C1c1ccccc1` (centres undefined) registered a melting point of 99.5 to 101 °C. Turning to `COc1ccccc1OCCCc1oc(-n2cnc(-c3ccccc3)c2-c2ccccc2)nc1-c1ccc(Cl)cc1`, the melting point lay in the range of 118 to 119 °C. In the case of `COC(=O)C1=C2CCC(c3ccccc3)CN2CCC1=O` (centres undefined) it was 150 to 151 °C. Then `CCC(=O)N1CCC(NC(=O)Nc2cccc(C(F)(F)F)c2)CC1`, with 153 to 154 °C; and `CON(C)C(=O)c1ccc(-c2cc(C(C)(C)C)c(O)c(C(C)(C)C)c2)cc1`, with 176 to 177 °C; and `CC(NC(=O)C1CC(=O)c2cc(F)ccc2O1)c1ccccc1` (single isomer, unassigned; (+)), with 140 °C. The compound `CSc1ccc(NC(=N)c2ccccc2)cc1` had a melting point of 129 to 131 °C. In the case of `C=C(C)[C@@H]1CC(=O)[C@H](C)[C@H]1c1nc2c([nH]1)c(=O)n(CCC)c(=O)n2CCC` it was 136 to 137 °C; in that of `COc1cc2c(cc1OC)CCN=C2`, 185 to 187 °C. Take `Cn1ncc2c(c1=O)SCCNC2Cc1ccccc1` (centres undefined): the melting point fell in the range of 108 to 109 °C.

The compound `CCOc1nn(Cc2ccc(OCc3csc(-c4ccccc4)n3)cc2)cc1CCC(=O)O` displayed a melting point of 114 to 115 °C. `C[C@@H](NS(=O)(=O)c1ccc(-c2c(C#N)c3cc(Cl)ncc3n2C2CCC2)nc1)C(F)(F)F` came in with a melting point of 181 to 185 °C.

As to `CCc1cc(N(C=O)c2ccccc2)cc(CC)c1N=C=S`, the melting point lay in the range of 77 to 78 °C.

The compound `COc1ccc(S(=O)(=O)c2c(C(C)C)nn3ccccc23)cc1` showed a melting point of 138 to 139 °C. Compound `CC(=O)OC1CSC(Oc2cncc(-c3ccc(C#N)c(Cl)c3)c2)C(OC(C)=O)C1OC(C)=O` (centres undefined) gave a melting point of 148 to 150 °C. In the case of `CN1CCN(C(=O)c2cc([N+](=O)[O-])cc3c2OCCO3)CC1` it was 218 °C; in that of `CS(=O)(=O)c1cccc(-c2ccc3cnc(Nc4ccc(C5CCN(CC(N)=O)CC5)cc4)nn23)c1`, 254 °C. Then `O=C(Nc1cnc(-n2nc(C(F)(F)F)cc2C2CC2)nc1)c1c(F)cccc1F`, with 280 to 281 °C. On to `CC(Br)C(=O)NC1=NN(c2cccc(C(F)(F)F)c2)CC1` (centres undefined), for which the melting point was 54 to 56 °C. `C[Si](C)(C)CC(O)(Cn1cncn1)c1ccccc1` (centres undefined) displayed a melting point of 86 to 87 °C. Take `CCCC(=O)C(=CNc1ccccc1OC)C(=O)OCC`: the melting point lay in the range of 74 to 76 °C. In the case of `C=CCc1cc2c(c(CC=C)c1O)CCC(=O)N2CCCNC(=O)CCl` it was 152 to 154 °C; in that of `N#CC(c1ccc(Cl)c(Cl)c1)c1c(Cl)cc([N+](=O)[O-])cc1Cl` (centres undefined), 171 to 172 °C; in that of `O=C(NOCC(=O)N1CCCC1C(=O)O)NN1CCCC1C(=O)O` (centres undefined), 157 to 160 °C.

Turning to `CN1CC(CNCCC#N)CC2c3cccc4[nH]cc(c34)CC21` (centres undefined), the melting point lay in the range of 169 to 171 °C. In the case of `Nc1cccc(-c2ccc(-c3ccc(CCN4CC5C(N)C5C4)cc3)cc2)n1` (centres undefined), the melting point worked out at 205 °C.

The compound `CC(=O)OCC1OC(c2ccc(F)c(Cc3ccc(Cl)s3)c2)C(OC(C)=O)C(OC(C)=O)C1OC(C)=O` (centres undefined) displayed a melting point of 130 to 131 °C. In the case of `Cc1c(CBr)cccc1C(F)(F)C(F)(F)c1ccccc1` it was 67 to 71 °C; in that of `O=C(O)C=C1SC(=NCCc2ccccc2)N(CCc2ccccc2)C1=O`, 148 to 149 °C; in that of `CCCCCCCCOc1ncc(-c2ccc(OC(=O)[C@H]3CCCO3)cc2)cn1`, 75 °C.

Consider `CC(=O)N1CCc2cc(-c3ccc4c(c3)CCC3N(C)C(=O)CCC43C)cc([N+](=O)[O-])c21` (single isomer, unassigned; (+)), for which the melting point fell in the range of 235 to 240 °C.

The compound `Cc1cc(C(=O)c2ccccc2)c(-n2c(C)nnc2CNC(=O)c2cc3ccccc3[nH]2)s1` displayed a melting point of 231 to 233 °C. In the case of `O=C(CCC(=O)N(CCO)CCO)c1ccccc1` it was 98 °C; in that of `Nc1nc(-c2cc(Cl)ccc2Cl)nc(N2CCNC(=O)C2)n1`, over 275 °C; in that of `O=[N+]([O-])c1ccc2c(c1)OCC2`, 71 to 72 °C. In the case of `Cc1ccc(S(=O)(=O)OCCCCCCCl)cc1`, the melting point was in the range of 27 to 28 °C.

`Sc1ccc(-n2cnnn2)cc1` showed a melting point of 120 to 122 °C. In the case of `CS(=O)(=O)c1ccc(-c2nc(-c3ccccc3)nn2-c2ccc(Cl)cc2)cc1` it was 170 °C; in that of `O=C(O)c1snc(-c2cccc(Cl)c2)c1C(=O)O`, 185 to 186 °C; in that of `Nc1nc(N)nc(-c2ccc(-c3ccccc3)c3ccccc23)n1`, 239 to 240 °C. Then `COc1cc([N+](=O)[O-])c(CCCCC(=O)O)c([N+](=O)[O-])c1O`, with 168 to 170 °C. For the compound `CCC(C)CNN(NCC(C)CC)C(=O)c1cc(NC(=O)CCl)cc(C(N)=O)c1` (centres undefined), the melting point fell in the range of 160 to 162 °C. As for `N#CC(CC(=O)O)(c1ccc(F)cc1)c1ccc(F)cc1`, the melting point is 165 to 166 °C. On to `Cn1c(=O)c2c(ncn2Cc2noc(CCl)n2)n(C)c1=O`, for which the melting point fell in the range of 146 to 148 °C.

`CCCOc1ccc(C=CCCCCC(=O)O)cc1` came in with a melting point of 52 to 53 °C. Then `N#CNc1ncc(-c2ccncc2)cn1`, with over 300 °C; and `O=C(Nc1ccc(Cl)c(Cl)c1)OCCCC(=O)c1ccccc1`, with 141 to 143 °C.

For orientation: melting point means the temperature, or range, at which the solid turns liquid.

The values above are taken from a melting point compilation (Tetko et al.; mined from patent text by program, amines drawn as free bases though some values may be those of a salt).
